{"source": "paper PMC10957570", "about": "“Coniferyl ferulate alleviate xylene-caused hematopoietic stem and progenitor cell toxicity by Mgst2” (Frontiers in Pharmacology, 2024)", "biological_target": "T1, Mgst2 (Mus musculus, UniProt A2RST1)", "T1 construct": "native protein in lysate of CD117+ bone marrow cells, captured on CF chip and identified by LC-MS/MS", "T1 sequence (A2RST1 whole entry)": "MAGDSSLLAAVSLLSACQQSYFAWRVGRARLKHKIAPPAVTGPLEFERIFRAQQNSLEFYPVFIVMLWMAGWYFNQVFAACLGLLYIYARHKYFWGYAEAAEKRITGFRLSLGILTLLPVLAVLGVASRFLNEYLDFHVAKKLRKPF", "test": "SPR capture from cell lysate on CF chip, LC-MS/MS identification", "format": "biochemical", "conditions": "CD117+ bone marrow cell lysate; CF immobilised; excess free CF lowered total SPR signal", "data": [{"smiles": "COc1cc(/C=C/COC(=O)/C=C/c2ccc(O)c(OC)c2)ccc1O", "note": "[Coniferyl ferulate]", "values": [{"measurement": "SPR capture from cell lysate on CF chip, LC-MS/MS identification", "value": "we found that Mgst2 was one of the targets of CF"}]}]}
